One test concerns the target T1, human MER (528-end) (Homo sapiens, UniProt Q12866).
T1 construct: human MER (528-end); purchased Carnabio, Japan
T1 sequence (Q12866 528-999 limits assumed): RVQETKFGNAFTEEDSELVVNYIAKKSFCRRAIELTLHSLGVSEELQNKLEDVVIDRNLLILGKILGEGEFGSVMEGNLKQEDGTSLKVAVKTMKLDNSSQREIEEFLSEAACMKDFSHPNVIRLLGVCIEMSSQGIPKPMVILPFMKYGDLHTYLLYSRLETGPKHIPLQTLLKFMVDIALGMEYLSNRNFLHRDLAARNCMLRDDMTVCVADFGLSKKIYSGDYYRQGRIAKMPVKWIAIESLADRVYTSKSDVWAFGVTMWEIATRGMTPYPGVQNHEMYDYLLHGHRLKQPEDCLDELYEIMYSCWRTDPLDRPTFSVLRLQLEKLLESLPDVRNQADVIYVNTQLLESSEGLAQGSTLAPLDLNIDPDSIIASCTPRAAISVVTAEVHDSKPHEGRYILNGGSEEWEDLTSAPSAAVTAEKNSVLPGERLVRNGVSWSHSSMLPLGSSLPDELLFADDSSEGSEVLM
Briefly: HTRF kinase activity biochemical assay, MER.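 Note: phosphorylation of a biotin-tagged tyrosine kinase substrate detected by Eu3+-cryptate antibody and streptavidin-XL665 time-resolved fluorescence, read after 1 h at room temperature.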 The note with it: recombinant kinase, 10 uM ATP, 30 minutes pre-incubation; read-out: HTRF MERTK IC50.

Another test has as its target T2, human AXL (473-end) (Homo sapiens, UniProt P30530).
T2 construct: human AXL (473-end); purchased SignalChem, Canada
T2 sequence (P30530 473-894 limits assumed): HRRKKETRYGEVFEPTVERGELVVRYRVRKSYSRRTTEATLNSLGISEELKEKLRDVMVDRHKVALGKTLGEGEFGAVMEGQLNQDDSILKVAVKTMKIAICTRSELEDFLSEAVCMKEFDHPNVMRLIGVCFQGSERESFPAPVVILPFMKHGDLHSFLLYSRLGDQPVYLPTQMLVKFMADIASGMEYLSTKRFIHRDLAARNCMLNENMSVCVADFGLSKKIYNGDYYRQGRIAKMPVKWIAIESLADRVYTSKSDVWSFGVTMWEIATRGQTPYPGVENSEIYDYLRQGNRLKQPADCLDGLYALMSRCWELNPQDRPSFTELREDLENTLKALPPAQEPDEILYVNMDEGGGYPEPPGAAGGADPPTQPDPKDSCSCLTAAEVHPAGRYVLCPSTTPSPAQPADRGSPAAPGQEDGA
In words: HTRF kinase activity biochemical assay, AXL.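 Note: phosphorylation of a biotinylated tyrosine kinase substrate detected via Eu3+-cryptate anti-TK antibody and streptavidin-XL665, fluorescence read after a 1 h incubation at room temperature.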 To be noted: recombinant kinase, 10 uM ATP, 30 minutes pre-incubation; read-out: HTRF AXL IC50.

Another test addresses T3, TYRO3 (455-end) (Homo sapiens, UniProt Q06418).
T3 construct: TYRO3 (455-end); purchased SignalChem, Canada
T3 sequence (Q06418 455-890 limits assumed): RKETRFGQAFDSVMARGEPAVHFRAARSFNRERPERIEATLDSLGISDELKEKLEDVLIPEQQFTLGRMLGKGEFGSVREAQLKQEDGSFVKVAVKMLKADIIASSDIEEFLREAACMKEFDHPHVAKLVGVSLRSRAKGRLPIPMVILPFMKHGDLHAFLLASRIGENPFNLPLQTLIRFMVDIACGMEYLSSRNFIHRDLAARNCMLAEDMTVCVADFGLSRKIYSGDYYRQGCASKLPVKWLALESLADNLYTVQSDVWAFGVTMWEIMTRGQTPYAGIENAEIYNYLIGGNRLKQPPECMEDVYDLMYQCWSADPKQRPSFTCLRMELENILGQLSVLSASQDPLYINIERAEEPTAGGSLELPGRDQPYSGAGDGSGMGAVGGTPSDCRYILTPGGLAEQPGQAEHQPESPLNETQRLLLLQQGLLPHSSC
Briefly: HTRF kinase activity biochemical assay, TYRO3.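 Note: biotinylated tyrosine kinase substrate phosphorylation detected via streptavidin-XL665 and Eu3+-cryptate anti-phospho antibody time-resolved fluorescence, read after 1 h detection at room temperature, 384-well format.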 To be noted: recombinant kinase, 10 uM ATP, 30 minutes pre-incubation; read-out: HTRF TYRO IC50.

In another test the test system is MC-38 cells. In words: MC-38 Efficacy Assay (tumor growth inhibition). It counts as in vivo, Female C57BL/6 mice. The note with it: once a day for 21 days, subcutaneous MC-38 tumors in C57BL/6 mice.

pIC50: −log10 of the molar value.

The term pIC50 denotes −log10 of the IC50, conventionally taken in molar units.

Turning to `CN1CCC(Oc2ccc3nc(N4CC(c5cnc(Nc6cnn(C)c6)c(C(N)=O)n5)C4)oc3c2)C1=O` (stereo not drawn) [Example 72, 6-(1-{6-[(1-methyl-2-oxopyrrolidin-3-yl)oxy]-1,3-benzoxazol-2-yl}azetidin-3-yl)-3-[(1-methyl-1H-pyrazol-4-yl)amino]pyrazine-2-carboxamide], the negative logarithm of the IC50 (pIC50) at human MER (528-end) is 9.00; on human AXL (473-end), 8.52; at TYRO3 (455-end) it was 6.03. The “% TGI (dose)” value in the test on MC-38 cells (30 mg/kg/d) stood at 44%.

For the compound `Cn1cc(Nc2ncc(C3CN(c4nc5ccc(OCc6ccn(C)n6)cc5o4)C3)nc2C(N)=O)cn1` [Example 80, 3-[(1-methyl-1H-pyrazol-4-yl)amino]-6-(1-{6-[(1-methyl-1H-pyrazol-3-yl)methoxy]-1,3-benzoxazol-2-yl}azetidin-3-yl)pyrazine-2-carboxamide], the pIC50 at human MER (528-end) was greater than 9.00; on human AXL (473-end), 9.00; on TYRO3 (455-end) it was 7.32. The “% TGI (dose)” value with MC-38 cells (10 mg/kg/d) worked out at 23%.

With `CC(C)(O)Cn1cc(Nc2ncc(C3CN(c4nc5ccc(F)cc5o4)C3)nc2C(N)=O)cn1` [Example 28, 6-[1-(6-fluoro-1,3-benzoxazol-2-yl)azetidin-3-yl]-3-{[1-(2-hydroxy-2-methylpropyl)-1H-pyrazol-4-yl]amino}pyrazine-2-carboxamide], the results for the negative logarithm of the IC50 (pIC50) on human MER (528-end), at human AXL (473-end) and at TYRO3 (455-end) were 9.00, 8.22 and 6.82, respectively. In the test with MC-38 cells (10 mg/kg/d), the “% TGI (dose)” value is listed as 17%.

With `Cn1cc(Nc2ccc(C3CN(c4nc5ccc(OCC(C)(C)O)cc5o4)C3)nc2C(N)=O)cn1` [Example 85, 6-{1-[6-(2-hydroxy-2-methylpropoxy)-1,3-benzoxazol-2-yl]azetidin-3-yl}-3-[(1-methyl-1H-pyrazol-4-yl)amino]pyridine-2-carboxamide], the figures for the pIC50 at human MER (528-end), at human AXL (473-end) and on TYRO3 (455-end) were 8.70, 8.40 and 5.73, respectively. The “% TGI (dose)” value in the test with MC-38 cells (10 mg/kg/d) turned out to be 37%.

Turning to `CC(C)(O)Cn1cc(Nc2ncc(C3CN(c4nc5ccccc5o4)C3)nc2C(N)=O)cn1` [Example 30, 6-[1-(1,3-benzoxazol-2-yl)azetidin-3-yl]-3-{[1-(2-hydroxy-2-methylpropyl)-1H-pyrazol-4-yl]amino}pyrazine-2-carboxamide], the negative logarithm of the IC50 (pIC50) is 8.52 on human MER (528-end), 7.96 at human AXL (473-end) and 6.44 at TYRO3 (455-end). For the same compound, the “% TGI (dose)” value in the test on MC-38 cells (10 mg/kg/d) was 33%.

On to `Cn1cc(Nc2ncc(C3CN(c4nc5ccc(OCCC(C)(C)OP(=O)(O)O)cc5o4)C3)nc2C(N)=O)cn1` [Example 77, 4-{[2-(3-{6-carbamoyl-5-[(1-methyl-1H-pyrazol-4-yl)amino]pyrazin-2-yl}azetidin-1-yl)-1,3-benzoxazol-6-yl]oxy}-2-methylbutan-2-yl dihydrogen phosphate], for which the pIC50 is 7.48 on human MER (528-end), 7.27 at human AXL (473-end) and 5.48 on TYRO3 (455-end). The “% TGI (dose)” value in the test with MC-38 cells (15 mg/kg/d) came to 39%.

With `NC(=O)c1nc(C2CN(c3nc4ccc(F)cc4o3)C2)cnc1Nc1cn[nH]c1` [Example 36C, 6-[1-(6-fluoro-1,3-benzoxazol-2-yl)azetidin-3-yl]-3-[(1H-pyrazol-4-yl)amino]pyrazine-2-carboxamide], the pIC50 on human MER (528-end) was 9.00; on human AXL (473-end), 8.52; on TYRO3 (455-end), less than 5.00.

Regarding `Cn1cc(Nc2ncc(C3CN(c4nc5ccc(C(F)(F)F)cc5o4)C3)nc2C(N)=O)cn1` [Example 12, 3-[(1-methyl-1H-pyrazol-4-yl)amino]-6-{1-[6-(trifluoromethyl)-1,3-benzoxazol-2-yl]azetidin-3-yl}pyrazine-2-carboxamide], the pIC50 at human MER (528-end) was 9.00; on human AXL (473-end), 8.40; at TYRO3 (455-end), 6.66.

Consider `COC[C@H]1CCCN1C(=O)Cc1ccc2nc(N3CC(c4cnc(Nc5cnn(C)c5)c(C(N)=O)n4)C3)oc2c1` [Example 71, 6-[1-(6-{2-[(2R)-2-(methoxymethyl)pyrrolidin-1-yl]-2-oxoethyl}-1,3-benzoxazol-2-yl)azetidin-3-yl]-3-[(1-methyl-1H-pyrazol-4-yl)amino]pyrazine-2-carboxamide], for which the pIC50 was 8.70 on human MER (528-end), 8.40 on human AXL (473-end) and 5.43 at TYRO3 (455-end).

These data come from patent publication US20260232658A1, “AZETIDINYL BENZOXAZOLE COMPOUNDS AND THEIR USE AS MER AND AXL INHIBITORS” (DONG-A ST CO., LTD., priority 2022, published 2026).
